Data reported in patent publication US20250382258A1, “NAPHTHALENE-TYPE COMPOUND AND PREPARATION METHOD THEREFORE AND USE THEREFORE” (DALIAN INSTITUTE OF CHEMICAL PHYSICS, CHINESE ACADEMY OF …, priority 2022, published 2025).
≈ marks a conversion by molar mass, not a printed value.

Experiment: water solubility under acidic conditions
Format: physicochemical
Settings: not given

Q: With “2,2′,6,6′-tetrabenzylamine-5,5′-dihydroxy-1,1′-dicarbonylbinaphthalene” as the compound, how does the “water solubility under acidic conditions” value read?
A: approximately 2 M

Q: With Oc1c(NCc2ccccc2)cc(NCc2ccccc2)c2c(O)c(NCc3ccccc3)cc(NCc3ccccc3)c12 [2,4,6,8-Tetrabenzylamine-1,5-naphthalenediol] as the compound, how does the “water solubility under acidic conditions” value read?
A: lower than 1 M

Q: For Oc1c(NCc2ccccc2)ccc2c(O)c(NCc3ccccc3)ccc12 [2,6-Dibenzylamine-1,5-naphthalenediol], which “water solubility under acidic conditions” value is on record?
A: lower than 5 mM

Q: With O=C1C(NCc2ccccc2)=C(O)C(=O)c2c(O)c(NCc3ccccc3)cc(NCc3ccccc3)c21 [3,5,7-tribenzylamine-2,8-dihydroxy-1,4-dicarbonylnaphthalene] as the compound, how does the “water solubility under acidic conditions” value read?
A: approximately 1.6 M

Q: For O=C1C(O)=C(NCc2ccccc2)C(=O)c2ccccc21 [3-benzylamine-2-hydroxy-1,4-dicarbonylnaphthalene], which “water solubility under acidic conditions” value is on record?
A: approximately 1 M

Experiment: not given
Settings: in a pH=14 aqueous solution; cited from earlier work

Q: For O=C1C(O)=C(C2=C(O)C(=O)c3ccccc3C2=O)C(=O)c2ccccc21 [bilawsone], which solubility is on record?
A: 560 mM (≈ 194 mg/mL)
